Measurements: paper PMC11062899, “De novo development of small cyclic peptides that are orally bioavailable” (Nature Chemical Biology, 2023)
Values joined by “and” are separate entries in the source; they are usually repeats but may differ in a detail not shown here. Equal values may be shown once. Each block holds one molecule with its values, some of them ahead of it.

Legend:
porcine pancreatin = assay: Peptide stability in simulated intestinal fluid (SIF); assay type: in vitro ADME; conditions: after 8 h vs 0 h (TIC); for SIF stability, Residual peptide Average: average of R1-R3; for SIF stability, Residual peptide: single replicates R1-R3
Summary of the method: (§1)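 Peptide from a 1 mM DMSO stock was added to fluid pre-warmed at 37 °C. SGF was pH 1.2 NaCl with porcine pepsin (0.32 g per 100 ml), and SIF was pH 6.8 potassium phosphate with porcine pancreatin (1 g per 100 ml). Supernatant peptide was quantified by LC–MS, with residual expressed as T1/T0.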

[1] = as above; assay type: in vitro ADME, porcine; conditions: simulated gi fluid; 8 h, 37 °C, pH 6.8; read-out: Proteolytic stability: SIF (8 h) % remaining
Summary of the method: as §1

[2] = Passive artificial membrane permeability (PAMPA); conditions: for PAMPA permeability: % permeability: 50 μM, 12–18 h, acceptor concentration relative to equilibrium; for Papp at 50 μM / Permeability% Average / Permeability% R1 / Permeability% R3: PAMPA; for Papp at 50 μM: pH 7.4; for Permeability% Average: average of R1-R3; for Permeability% R1: replicate R1; for Permeability% R1 / Permeability% R3: TIC of top well sample relative to sample at theoretical equilibrium; for Permeability% R3: replicate R3
rat α-thrombin = biological target: T1, rat α-thrombin (Rattus norvegicus, UniProt P18292); assay: Protease inhibition, Ki for rat α-thrombin (fluorogenic substrate Z-Gly-Gly-Arg-AMC); assay type: biochemical; conditions: replicates R1-R3
T1 construct: rat α-thrombin (Molecular Innovations) were used at final concentrations of 2 nM and 3 nM; purchased Molecular Innovations
Summary of the method: (§2)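 Ki derived through Cheng–Prusoff from IC50s (four-parameter logistic fit) against activity of peptide-free controls. Product fluorescence was read every 3 min over 30 min at 25 °C, substrate Z-Gly-Gly-Arg-AMC at 50 μM. Enzyme was 2 nM human or 3 nM rat α-thrombin, pH 7.4 buffer.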

human α-thrombin = human α-thrombin (Homo sapiens, UniProt P00734); assay: Protease inhibition, Ki for human α-thrombin (fluorogenic substrate Z-Gly-Gly-Arg-AMC); assay type: biochemical; conditions: replicates R1-R3
Summary of the method: as §2

porcine pepsin = biological target: T2, porcine pepsin (Sus scrofa, UniProt P00791); assay: Peptide stability in simulated gastric fluid (SGF); assay type: in vitro ADME; conditions: for SGF stability, Residual peptide Average / SGF stability, Residual peptide: after 8 h vs 0 h (TIC); for SGF stability, Residual peptide Average: average of R1-R3; for SGF stability, Residual peptide: single replicates R1-R3; for remaining at 8 h: simulated gi fluid, 37 °C, pH 1.2, read-out: Proteolytic stability: SGF (8 h) % remaining
T2 construct: 0.32 g of porcine pepsin (Sigma-Aldrich, P7125) was dissolved under gentle agitation; purchased Sigma-Aldrich P7125
T2 sequence (P00791 60-385): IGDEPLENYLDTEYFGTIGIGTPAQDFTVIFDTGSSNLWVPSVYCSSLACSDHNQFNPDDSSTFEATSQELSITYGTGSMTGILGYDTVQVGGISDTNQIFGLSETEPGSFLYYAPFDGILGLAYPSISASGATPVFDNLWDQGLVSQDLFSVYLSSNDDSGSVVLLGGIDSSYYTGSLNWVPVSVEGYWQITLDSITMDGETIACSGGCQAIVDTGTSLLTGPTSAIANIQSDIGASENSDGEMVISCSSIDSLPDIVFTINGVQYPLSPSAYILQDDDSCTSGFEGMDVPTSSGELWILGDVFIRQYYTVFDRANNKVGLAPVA
Summary of the method: as §1

[3] = Metabolic stability in rat liver microsomes (RLMs); conditions: rat, microsomes
[4] = peptide 1.33E+02 uM, slope of proteolytic substrate cleavage over time
[5] = CL (ul/min/mg protein) R1, RLM CL, replicate R1
[6] = CL (ul/min/mg protein) R2, RLM CL, replicate R2
[7] = CL (ul/min/mg protein) R3, RLM CL, replicate R3
[8] = Half Life (min) R1, RLM metabolic stability, replicate R1, 0-60 min
[9] = Half Life (min) R2, RLM metabolic stability, replicate R2, 0-60 min
[10] = Half Life (min) R3, RLM metabolic stability, replicate R3, 0-60 min
[11] = Metabolic stability: Half life T1/2 (min), RLMs, mean and SD, three measurements
[12] = Metabolic stability: RLM CL (ul/min/mg), RLMs, mean and SD, three measurements

SIF stability, Residual peptide Average (porcine pancreatin): 93.12
SIF stability, Residual peptide (porcine pancreatin): 102.84 and 84.15 and 92.36
remaining at 8 h [1]: 93 ± 9%
PAMPA permeability: % permeability [2]: 0.62 ± 0.14%
Papp at 50 μM [2]: 0.0407 ×10⁻⁶ cm/s
Permeability% Average [2]: 0.6%
Permeability% R1 [2]: 0.77%
Permeability% R3 [2]: 0.57%
Rat alpha thrombin inhibition, slope normalized to DMSO (rat α-thrombin; [4]): 3.8 and 4.8 and 16.3
Rat alpha thrombin inhibition, slope normalized to DMSO (rat α-thrombin; peptide 1.67E+01 uM): 8.5 and 7.5 and 19.4
Rat alpha thrombin inhibition, slope normalized to DMSO (rat α-thrombin; peptide 2.08E+00 uM): 35.4 and 36.0 and 40.9
Rat alpha thrombin inhibition, slope normalized to DMSO (rat α-thrombin; peptide 3.33E+01 uM): 4.1 and 4.6 and 17.1
Rat alpha thrombin inhibition, slope normalized to DMSO (rat α-thrombin; peptide 4.17E+00 uM): 23.4 and 23.3 and 26.8
Rat alpha thrombin inhibition, slope normalized to DMSO (rat α-thrombin; peptide 6.67E+01 uM): 3.8 and 4.6 and 15.5
Rat alpha thrombin inhibition, slope normalized to DMSO (rat α-thrombin; peptide 8.33E+00 uM): 13.7 and 14.0 and 21.8
Human alpha thrombin inhibition, slope normalized to DMSO (human α-thrombin; peptide 1.02E-03 uM): 94.7 and 95.3 and 98.5
Human alpha thrombin inhibition, slope normalized to DMSO (human α-thrombin; peptide 1.04E+00 uM): 75.5 and 74.4 and 76.2
Human alpha thrombin inhibition, slope normalized to DMSO (human α-thrombin; peptide 1.27E-04 uM): 97.4 and 68.3 and 98.0
Human alpha thrombin inhibition, slope normalized to DMSO (human α-thrombin; peptide 1.30E-01 uM): 93.0 and 91.1 and 92.8
Human alpha thrombin inhibition, slope normalized to DMSO (human α-thrombin; [4]): 13.5 and 15.1 and 12.6
Human alpha thrombin inhibition, slope normalized to DMSO (human α-thrombin; peptide 1.63E-02 uM): 97.4 and 90.6 and 97.7
Human alpha thrombin inhibition, slope normalized to DMSO (human α-thrombin; peptide 1.67E+01 uM): 26.1 and 29.0 and 29.2
Human alpha thrombin inhibition, slope normalized to DMSO (human α-thrombin; peptide 2.03E-03 uM): 98.6 and 102.5 and 100.6
Human alpha thrombin inhibition, slope normalized to DMSO (human α-thrombin; peptide 2.08E+00 uM): 73.0 and 60.5 and 66.8
Human alpha thrombin inhibition, slope normalized to DMSO (human α-thrombin; peptide 2.54E-04 uM): 97.8 and 93.6 and 92.8
Human alpha thrombin inhibition, slope normalized to DMSO (human α-thrombin; peptide 2.60E-01 uM): 88.6 and 90.7 and 89.6
Human alpha thrombin inhibition, slope normalized to DMSO (human α-thrombin; peptide 3.18E-05 uM): 97.1 and 94.4 and 99.6
Human alpha thrombin inhibition, slope normalized to DMSO (human α-thrombin; peptide 3.26E-02 uM): 101.4 and 92.5 and 97.5
Human alpha thrombin inhibition, slope normalized to DMSO (human α-thrombin; peptide 3.33E+01 uM): 14.8 and 16.8 and 15.8
Human alpha thrombin inhibition, slope normalized to DMSO (human α-thrombin; peptide 4.07E-03 uM): 99.3 and 94.9 and 93.4
Human alpha thrombin inhibition, slope normalized to DMSO (human α-thrombin; peptide 4.17E+00 uM): 57.1 (2×) and 55.7
Human alpha thrombin inhibition, slope normalized to DMSO (human α-thrombin; peptide 5.09E-04 uM): 99.4 and 94.7 and 120.6
Human alpha thrombin inhibition, slope normalized to DMSO (human α-thrombin; peptide 5.21E-01 uM): 84.0 and 81.7 and 83.0
Human alpha thrombin inhibition, slope normalized to DMSO (human α-thrombin; peptide 6.36E-05 uM): 93.6 and 95.3 and 99.3
Human alpha thrombin inhibition, slope normalized to DMSO (human α-thrombin; peptide 6.51E-02 uM): 95.9 and 74.7 and 94.1
Human alpha thrombin inhibition, slope normalized to DMSO (human α-thrombin; peptide 6.67E+01 uM): 13.4 and 15.6 and 21.8
Human alpha thrombin inhibition, slope normalized to DMSO (human α-thrombin; peptide 8.14E-03 uM): 96.7 and 95.4 and 97.4
Human alpha thrombin inhibition, slope normalized to DMSO (human α-thrombin; peptide 8.33E+00 uM): 44.0 and 41.9 and 43.6
SGF stability, Residual peptide Average (porcine pepsin): 101.05
SGF stability, Residual peptide (porcine pepsin): 110.75 and 95.01 and 97.38
remaining at 8 h (porcine pepsin): 101 ± 8%
microsomal CLint [3, 5]: 99.1 µL/min/mg
microsomal CLint [3, 6]: 76.5 µL/min/mg
microsomal CLint [3, 7]: 112 µL/min/mg
half-life [3, 8]: 14 min
half-life [3, 9]: 18.1 min
half-life [3, 10]: 12.4 min
half-life [3, 11]: 14.8 ± 2.4 min
microsomal CLint [3, 12]: 96 ± 15 µL/min/mg
SMILES: O=C1NCCSCc2cccc(n2)CSC[C@H](NC(=O)c2ccc(Cl)s2)C(=O)N[C@@H](CO)C(=O)NCc2ccc1cc2 [compound 25]

SIF stability, Residual peptide Average (porcine pancreatin): 88.29
SIF stability, Residual peptide (porcine pancreatin): 90.18 and 82.19 and 92.51
remaining at 8 h [1]: 88 ± 5%
PAMPA permeability: % permeability [2]: 4.3 ± 1.6%
Papp at 50 μM [2]: 0.275 ×10⁻⁶ cm/s
Permeability% Average [2]: 4.3%
Permeability% R1 [2]: 2.49%
Permeability% R3 [2]: 5.45%
Rat alpha thrombin inhibition, slope normalized to DMSO (rat α-thrombin; [4]): 14.8 and 14.9 and 15.8
Rat alpha thrombin inhibition, slope normalized to DMSO (rat α-thrombin; peptide 1.67E+01 uM): 13.6 and 25.5 and 34.3
Rat alpha thrombin inhibition, slope normalized to DMSO (rat α-thrombin; peptide 2.08E+00 uM): 26.5 and 27.8 and 27.7
Rat alpha thrombin inhibition, slope normalized to DMSO (rat α-thrombin; peptide 3.33E+01 uM): 22.7 and 27.1 and 25.7
Rat alpha thrombin inhibition, slope normalized to DMSO (rat α-thrombin; peptide 4.17E+00 uM): 20.6 (2×) and 20.4
Rat alpha thrombin inhibition, slope normalized to DMSO (rat α-thrombin; peptide 6.67E+01 uM): 19.9 and 22.5 and 21.1
Rat alpha thrombin inhibition, slope normalized to DMSO (rat α-thrombin; peptide 8.33E+00 uM): 13.5 and 20.1 and 24.1
Human alpha thrombin inhibition, slope normalized to DMSO (human α-thrombin; peptide 1.02E-03 uM): 99.9 and 93.8 and 93.5
Human alpha thrombin inhibition, slope normalized to DMSO (human α-thrombin; peptide 1.04E+00 uM): 74.0 and 69.6 and 63.3
Human alpha thrombin inhibition, slope normalized to DMSO (human α-thrombin; peptide 1.27E-04 uM): 95.9 and 97.1 and 89.9
Human alpha thrombin inhibition, slope normalized to DMSO (human α-thrombin; peptide 1.30E-01 uM): 97.4 and 88.7 and 84.7
Human alpha thrombin inhibition, slope normalized to DMSO (human α-thrombin; [4]): 48.0 and 48.9 and 38.9
Human alpha thrombin inhibition, slope normalized to DMSO (human α-thrombin; peptide 1.63E-02 uM): 100.4 and 97.8 and 90.3
Human alpha thrombin inhibition, slope normalized to DMSO (human α-thrombin; peptide 1.67E+01 uM): 53.6 and 73.4 and 36.5
Human alpha thrombin inhibition, slope normalized to DMSO (human α-thrombin; peptide 2.03E-03 uM): 104.9 and 96.2 and 90.3
Human alpha thrombin inhibition, slope normalized to DMSO (human α-thrombin; peptide 2.08E+00 uM): 55.5 and 68.9 and 56.1
Human alpha thrombin inhibition, slope normalized to DMSO (human α-thrombin; peptide 2.54E-04 uM): 98.8 and 99.4 and 90.5
Human alpha thrombin inhibition, slope normalized to DMSO (human α-thrombin; peptide 2.60E-01 uM): 80.8 and 89.0 and 86.0
Human alpha thrombin inhibition, slope normalized to DMSO (human α-thrombin; peptide 3.18E-05 uM): 84.7 and 96.5 and 92.2
Human alpha thrombin inhibition, slope normalized to DMSO (human α-thrombin; peptide 3.26E-02 uM): 93.0 and 90.7 and 88.1
Human alpha thrombin inhibition, slope normalized to DMSO (human α-thrombin; peptide 3.33E+01 uM): 66.3 and 62.6 and 52.3
Human alpha thrombin inhibition, slope normalized to DMSO (human α-thrombin; peptide 4.07E-03 uM): 103.1 and 97.8 and 89.7
Human alpha thrombin inhibition, slope normalized to DMSO (human α-thrombin; peptide 4.17E+00 uM): 60.4 and 78.0 and 53.8
Human alpha thrombin inhibition, slope normalized to DMSO (human α-thrombin; peptide 5.09E-04 uM): 103.6 and 97.9 and 97.0
Human alpha thrombin inhibition, slope normalized to DMSO (human α-thrombin; peptide 5.21E-01 uM): 81.6 and 82.6 and 73.0
Human alpha thrombin inhibition, slope normalized to DMSO (human α-thrombin; peptide 6.36E-05 uM): 100.1 and 99.2 and 93.6
Human alpha thrombin inhibition, slope normalized to DMSO (human α-thrombin; peptide 6.51E-02 uM): 92.5 and 99.9 and 84.8
Human alpha thrombin inhibition, slope normalized to DMSO (human α-thrombin; peptide 6.67E+01 uM): 54.4 and 57.2 and 52.4
Human alpha thrombin inhibition, slope normalized to DMSO (human α-thrombin; peptide 8.14E-03 uM): 104.4 and 96.4 and 91.9
Human alpha thrombin inhibition, slope normalized to DMSO (human α-thrombin; peptide 8.33E+00 uM): 36.8 and 64.2 and 38.3
SGF stability, Residual peptide Average (porcine pepsin): 97.08
SGF stability, Residual peptide (porcine pepsin): 97.29 and 98.54 and 95.42
remaining at 8 h (porcine pepsin): 97 ± 2%
microsomal CLint [3, 5]: 73.3 µL/min/mg
microsomal CLint [3, 6]: 121 µL/min/mg
microsomal CLint [3, 7]: 129 µL/min/mg
half-life [3, 8]: 18.9 min
half-life [3, 9]: 11.4 min
half-life [3, 10]: 10.8 min
half-life [3, 11]: 13.7 ± 3.7 min
microsomal CLint [3, 12]: 108 ± 25 µL/min/mg
SMILES: C[C@@H]1NC(=O)[C@@H](NC(=O)c2ccc(Cl)s2)CSCc2cccc(n2)CSCCNC(=O)c2ccc(cc2)CNC1=O [compound 26]
